In ChEMBL document CHEMBL4033770, “Importance of a 4-Alkyl Substituent for Activity in the Englerin Series” (2017):

Assays:
Assay type in all cases: functional
A498 = assay: Growth inhibition of human A498 cells incubated for 48 hrs by SRB assay; settings: A498, 48 h
ACHN = assay: Growth inhibition of human ACHN cells incubated for 48 hrs by SRB assay
UO-31 = assay: Growth inhibition of human UO31 cells incubated for 48 hrs by SRB assay; settings: UO-31, 48 h
Hs-578T = assay: Growth inhibition of human Hs 578T cells incubated for 48 hrs by SRB assay

Row | GI50 (ACHN) [µM] | SMILES | GI50 (A498) [µM] | GI50 (UO-31) [µM] | GI50 (Hs-578T) [µM]
1 | 0.0083 | CC(C)[C@@H]1CC[C@@H]2[C@@H]1[C@H](OC(=O)/C=C/c1ccccc1)[C@@]1(C(C)C)C[C@@H](OC(=O)CO)[C@]2(C)O1 | 0.0081 | 0.011 | 0.0032
2 | 0.013 | CC[C@@H]1CC[C@@H]2[C@@H]1[C@H](OC(=O)/C=C/c1ccccc1)[C@@]1(C(C)C)C[C@@H](OC(=O)CO)[C@]2(C)O1 | 0.038 | 0.019 | 0.0041
3 | 0.162 | CC(C)[C@]12C[C@@H](OC(=O)CO)[C@](C)(O1)[C@@H]1CCC[C@H]1[C@@H]2OC(=O)/C=C/c1ccccc1 | 0.123 | 0.182 | 0.031
